# Laboratory results as given in ChEMBL document CHEMBL3272271, “Folate antagonists. 13. 2,4-Diamino-6-](alpha,alpha,alpha-trifluoro-m-tolyl)thio]quinazoline and related 2,4-diamino-6-[(phenyl- and naphthyl)thio]quinazolines, a unique class of antimetabolites with extraordinary antimalarial and antibacterial effects” (J Med Chem, 1978).
# Activity calls are given as the source filed them. No cut-off for these calls is given here.
# Columns and labels:
# Plasmodium berghei [1] = experiment: Antimalarial activity against Plasmodium berghei infected in mouse assessed as increase in mean survival days of host at 2.5 mg/kg, sc administered 72 hrs after infection relative to control; type: functional; details: route subcutaneous
# Plasmodium berghei [2] = experiment: Antimalarial activity against Plasmodium berghei infected in mouse assessed as disease cure from parasite infection at 320 mg/kg, sc administered 72 hrs after infection; type: functional, organism-based; parameters: dose 320 mg/kg
# Plasmodium berghei [3] = experiment: Antimalarial activity against Plasmodium berghei infected in mouse assessed as disease cure from parasite infection at 640 mg/kg, sc administered 72 hrs after infection; type: functional, organism-based; parameters: dose 640 mg/kg
# Plasmodium berghei [4] = experiment: Antimalarial activity against Plasmodium berghei infected in mouse assessed as disease cure from parasite infection at 160 mg/kg, sc administered 72 hrs after infection; type: functional, organism-based; parameters: dose 160 mg/kg
# Plasmodium berghei [5] = experiment: Antimalarial activity against Plasmodium berghei infected in mouse assessed as increase in mean survival days of host at 10 mg/kg, sc administered 72 hrs after infection relative to control; type: functional; details: route subcutaneous
# Enterococcus faecalis = experiment: Antibacterial activity against Streptococcus faecalis MGH-2 by gradient plate test; type: functional
# Plasmodium gallinaceum [6] = experiment: Antimalarial activity against trophozoite-induced Plasmodium gallinaceum infected in white leghorn chicken assessed as increase in mean survival days of host at 1.25 mg/kg, sc administered 72 hrs after infection relative to control; type: functional; details: route subcutaneous
# Plasmodium gallinaceum [7] = experiment: Antimalarial activity against sporozoite-induced Plasmodium gallinaceum infected in white leghorn chicken assessed as disease cure from parasite infection at 60 mg/kg, sc administered 72 hrs after infection; type: functional, organism-based; parameters: dose 60 mg/kg
# Pseudomonas aeruginosa = experiment: Antibacterial activity against Pseudomonas aeruginosa 28 by gradient plate test; type: functional
# Plasmodium gallinaceum [8] = experiment: Antimalarial activity against trophozoite-induced Plasmodium gallinaceum infected in white leghorn chicken assessed as increase in mean survival days of host at 10 mg/kg, sc administered 72 hrs after infection relative to control; type: functional; details: route subcutaneous
# Staphylococcus aureus [9] = experiment: Antibacterial activity against drug-resistant Staphylococcus aureus S18713 by gradient plate test; type: functional
# Plasmodium gallinaceum [10] = experiment: Antimalarial activity against sporozoite-induced Plasmodium gallinaceum infected in white leghorn chicken assessed as increase in mean survival days of host at 60 mg/kg, sc administered 72 hrs after infection relative to control; type: functional; details: route subcutaneous
# Plasmodium gallinaceum [11] = experiment: Antimalarial activity against trophozoite-induced Plasmodium gallinaceum infected in white leghorn chicken assessed as increase in mean survival days of host at 5 mg/kg, sc administered 72 hrs after infection relative to control; type: functional; details: route subcutaneous
# Staphylococcus aureus [12] = experiment: Antibacterial activity against Staphylococcus aureus UC-96 by gradient plate test; type: functional
# Plasmodium gallinaceum [13] = experiment: Antimalarial activity against sporozoite-induced Plasmodium gallinaceum infected in white leghorn chicken assessed as disease cure from parasite infection at 30 mg/kg, sc administered 72 hrs after infection; type: functional, organism-based; parameters: dose 30 mg/kg
# Plasmodium gallinaceum [14] = experiment: Antimalarial activity against sporozoite-induced Plasmodium gallinaceum infected in white leghorn chicken assessed as disease cure from parasite infection at 240 mg/kg, sc administered 72 hrs after infection; type: functional, organism-based; parameters: dose 240 mg/kg
# Plasmodium gallinaceum [15] = experiment: Antimalarial activity against trophozoite-induced Plasmodium gallinaceum infected in white leghorn chicken assessed as increase in mean survival days of host at 20 mg/kg, sc administered 72 hrs after infection relative to control; type: functional; details: route subcutaneous
# Plasmodium berghei [16] = experiment: Antimalarial activity against Plasmodium berghei infected in mouse assessed as increase in mean survival days of host at 1.25 mg/kg, sc administered 72 hrs after infection relative to control; type: functional; details: route subcutaneous
# Plasmodium berghei [17] = experiment: Antimalarial activity against Plasmodium berghei infected in mouse assessed as increase in mean survival days of host at 40 mg/kg, sc administered 72 hrs after infection relative to control; type: functional; details: route subcutaneous
# Plasmodium gallinaceum [18] = experiment: Antimalarial activity against sporozoite-induced Plasmodium gallinaceum infected in white leghorn chicken assessed as disease cure from parasite infection at 120 mg/kg, sc administered 72 hrs after infection; type: functional, organism-based; parameters: dose 120 mg/kg
# Plasmodium gallinaceum [19] = experiment: Antimalarial activity against sporozoite-induced Plasmodium gallinaceum infected in white leghorn chicken assessed as disease cure from parasite infection at 480 mg/kg, sc administered 72 hrs after infection; type: functional, organism-based; parameters: dose 480 mg/kg
# Plasmodium gallinaceum [20] = experiment: Antimalarial activity against trophozoite-induced Plasmodium gallinaceum infected in white leghorn chicken assessed as increase in mean survival days of host at 2.5 mg/kg, sc administered 72 hrs after infection relative to control; type: functional; details: route subcutaneous
# Escherichia coli = experiment: Antibacterial activity against Escherichia coli Vogel by gradient plate test; type: functional
# Plasmodium berghei [21] = experiment: Antimalarial activity against Plasmodium berghei infected in mouse assessed as disease cure from parasite infection at 40 mg/kg, sc administered 72 hrs after infection; type: functional, organism-based; parameters: dose 40 mg/kg
# Plasmodium gallinaceum [22] = experiment: Antimalarial activity against sporozoite-induced Plasmodium gallinaceum infected in white leghorn chicken assessed as increase in mean survival days of host at 30 mg/kg, sc administered 72 hrs after infection relative to control; type: functional; details: route subcutaneous
# Plasmodium berghei [23] = experiment: Antimalarial activity against Plasmodium berghei infected in mouse assessed as increase in mean survival days of host at 5 mg/kg, sc administered 72 hrs after infection relative to control; type: functional; details: route subcutaneous
# Plasmodium gallinaceum [24] = experiment: Antimalarial activity against sporozoite-induced Plasmodium gallinaceum infected in white leghorn chicken assessed as increase in mean survival days of host at 15 mg/kg, sc administered 72 hrs after infection relative to control; type: functional; details: route subcutaneous
# Plasmodium berghei [25] = experiment: Antimalarial activity against Plasmodium berghei infected in mouse assessed as increase in mean survival days of host at 20 mg/kg, sc administered 72 hrs after infection relative to control; type: functional; details: route subcutaneous
# Shigella sonnei = experiment: Antibacterial activity against Shigella sonnei C-10 by gradient plate test; type: functional
# Plasmodium berghei [26] = experiment: Antimalarial activity against Plasmodium berghei infected in mouse assessed as disease cure from parasite infection at 80 mg/kg, sc administered 72 hrs after infection; type: functional, organism-based; parameters: dose 80 mg/kg
# Plasmodium gallinaceum [27] = experiment: Antimalarial activity against trophozoite-induced Plasmodium gallinaceum infected in white leghorn chicken assessed as increase in mean survival days of host at 0.63 mg/kg, sc administered 72 hrs after infection relative to control; type: functional; details: route subcutaneous
# Plasmodium gallinaceum [28] = experiment: Antimalarial activity against sporozoite-induced Plasmodium gallinaceum infected in white leghorn chicken assessed as increase in mean survival days of host at 120 mg/kg, sc administered 72 hrs after infection relative to control; type: functional; details: route subcutaneous
# [29] = test system: Mycobacterium tuberculosis; experiment: Antibacterial activity against Mycobacterium tuberculosis H37Ra by gradient plate test; type: functional
# Plasmodium berghei [30] = experiment: Antimalarial activity against Plasmodium berghei infected in mouse assessed as increase in mean survival days of host at 640 mg/kg, sc administered 72 hrs after infection relative to control; type: functional; details: route subcutaneous
# Plasmodium berghei [31] = experiment: Antimalarial activity against Plasmodium berghei infected in mouse assessed as increase in mean survival days of host at 80 mg/kg, sc administered 72 hrs after infection relative to control; type: functional; details: route subcutaneous
# Plasmodium berghei [32] = experiment: Antimalarial activity against Plasmodium berghei infected in mouse assessed as increase in mean survival days of host at 320 mg/kg, sc administered 72 hrs after infection relative to control; type: functional; details: route subcutaneous
# Plasmodium berghei [33] = experiment: Antimalarial activity against Plasmodium berghei infected in mouse assessed as increase in mean survival days of host at 160 mg/kg, sc administered 72 hrs after infection relative to control; type: functional; details: route subcutaneous
# Plasmodium gallinaceum [34] = experiment: Antimalarial activity against sporozoite-induced Plasmodium gallinaceum infected in white leghorn chicken assessed as disease cure from parasite infection at 15 mg/kg, sc administered 72 hrs after infection; type: functional, organism-based; parameters: dose 15 mg/kg
Compound,Activity (Plasmodium berghei [3]),MST (Plasmodium berghei [5]) [days],MIC (Enterococcus faecalis) [µg/mL],Activity (Plasmodium gallinaceum [7]),MIC (Pseudomonas aeruginosa) [µg/mL],MIC (Staphylococcus aureus [9]) [µg/mL],MST (Plasmodium gallinaceum [10]) [days],MIC (Staphylococcus aureus [12]) [µg/mL],Activity (Plasmodium gallinaceum [13]),Activity (Plasmodium gallinaceum [14]),MST (Plasmodium berghei [17]) [days],Activity (Plasmodium gallinaceum [18]),Activity (Plasmodium gallinaceum [19]),MIC (Escherichia coli) [µg/mL],MST (Plasmodium gallinaceum [22]) [days],MST (Plasmodium gallinaceum [24]) [days],MST (Plasmodium berghei [25]) [days],MIC (Shigella sonnei) [µg/mL],MIC [29] [µg/mL],other results
Nc1nc(N)c2cc(Sc3cccc(-c4ccccc4)c3)ccc2n1,Active,8.1,< 0.25,Active,> 25,< 0.25,0.3,< 0.25,Active,Active,17.4,Active,Active,10,1,0.7,11.1,> 25,> 25,MST (Plasmodium berghei [1]): 5.3 days; Activity (Plasmodium berghei [2]): Active; Activity (Plasmodium berghei [4]): Active; MST (Plasmodium gallinaceum [6]): 0 days; MST (Plasmodium gallinaceum [8]): 0 days; MST (Plasmodium gallinaceum [11]): 0 days; MST (Plasmodium gallinaceum [15]): 0 days; MST (Plasmodium berghei [16]): 4.5 days; MST (Plasmodium gallinaceum [20]): 0 days; Activity (Plasmodium berghei [21]): Active; MST (Plasmodium berghei [23]): 7.9 days; Activity (Plasmodium berghei [26]): Active; MST (Plasmodium gallinaceum [27]): 0 days; MST (Plasmodium gallinaceum [28]): 0.3 days
Nc1nc(N)c2cc(Sc3ccccc3-c3ccccc3)ccc2n1,Active,0.3,< 0.25,Active,> 25,< 0.25,0,< 0.25,Active,Active,0.5,Active,Active,2.5,0,0,0.5,> 25,20,MST (Plasmodium berghei [30]): 16.4 days; MST (Plasmodium berghei [31]): 3.3 days; MST (Plasmodium berghei [32]): 12.5 days; MST (Plasmodium berghei [33]): 5.7 days; Activity (Plasmodium gallinaceum [34]): Active
